Substitutions are numbered along the chain they refer to. Read-outs that look alike come from different tables or passages of the source. Blank lines part the entries; values can stand above or below the molecule they belong to.
Legend:
RARα = target: T1, RARα (Homo sapiens, UniProt P10276); assay: ligand binding assay; conditions: read-out: RAR Bind. Ki α
T1 sequence (P10276 1-462): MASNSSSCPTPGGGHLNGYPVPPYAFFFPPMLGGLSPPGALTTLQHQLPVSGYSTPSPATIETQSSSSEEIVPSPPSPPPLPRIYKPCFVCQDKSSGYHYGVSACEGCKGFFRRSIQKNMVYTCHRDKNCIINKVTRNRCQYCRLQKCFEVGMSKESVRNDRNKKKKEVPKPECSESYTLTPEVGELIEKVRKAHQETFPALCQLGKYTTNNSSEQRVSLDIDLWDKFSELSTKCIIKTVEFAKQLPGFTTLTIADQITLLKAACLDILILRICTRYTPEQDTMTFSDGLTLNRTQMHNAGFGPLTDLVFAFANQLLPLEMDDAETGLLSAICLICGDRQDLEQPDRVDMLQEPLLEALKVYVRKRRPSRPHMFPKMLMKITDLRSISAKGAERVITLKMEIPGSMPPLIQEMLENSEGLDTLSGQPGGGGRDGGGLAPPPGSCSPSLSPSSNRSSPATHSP
Description: (§1) The results of the ligand binding assay are expressed in Ki numbers.

RARβ = target: T2, RARβ (Homo sapiens, UniProt P10826); assay: ligand binding assay; conditions: read-out: RAR Bind. Ki β
T2 sequence (P10826 1-455): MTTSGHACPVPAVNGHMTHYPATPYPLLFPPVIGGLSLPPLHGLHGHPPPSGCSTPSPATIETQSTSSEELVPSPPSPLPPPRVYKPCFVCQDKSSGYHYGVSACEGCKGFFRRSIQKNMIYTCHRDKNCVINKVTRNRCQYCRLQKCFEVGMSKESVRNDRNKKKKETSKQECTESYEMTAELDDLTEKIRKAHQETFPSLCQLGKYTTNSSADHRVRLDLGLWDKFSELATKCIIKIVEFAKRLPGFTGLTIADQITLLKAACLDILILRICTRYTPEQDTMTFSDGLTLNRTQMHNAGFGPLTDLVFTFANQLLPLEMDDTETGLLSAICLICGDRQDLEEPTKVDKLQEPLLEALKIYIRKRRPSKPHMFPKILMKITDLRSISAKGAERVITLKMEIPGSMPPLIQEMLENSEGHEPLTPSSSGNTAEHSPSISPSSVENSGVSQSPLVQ
Description: as §1

RARγ = target: T3, RARγ (Homo sapiens, UniProt P13631); assay: ligand binding assay; conditions: read-out: RAR Bind. Ki γ
T3 sequence (P13631 1-454): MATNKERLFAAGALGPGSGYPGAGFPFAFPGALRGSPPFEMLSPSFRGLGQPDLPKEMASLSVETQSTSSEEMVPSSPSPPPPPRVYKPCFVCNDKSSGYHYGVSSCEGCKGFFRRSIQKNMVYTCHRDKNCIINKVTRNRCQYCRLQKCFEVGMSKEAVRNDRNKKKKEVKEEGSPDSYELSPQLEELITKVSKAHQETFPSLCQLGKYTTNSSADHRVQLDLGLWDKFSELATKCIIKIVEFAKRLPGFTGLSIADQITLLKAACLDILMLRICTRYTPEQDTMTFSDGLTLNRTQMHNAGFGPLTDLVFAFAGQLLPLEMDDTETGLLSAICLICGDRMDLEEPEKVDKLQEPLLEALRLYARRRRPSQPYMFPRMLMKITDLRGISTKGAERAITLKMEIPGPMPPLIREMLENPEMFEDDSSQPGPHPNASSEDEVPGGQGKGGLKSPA
Description: as §1

RXRα [1] = target: T4, RXRα (Homo sapiens, UniProt P19793); assay: holoreceptor transactivation assay; assay type: cell-based; conditions: for EC50: holoreceptor assay, read-out: RXR Trans. EC50 α; for RXR Trans. efficacy α: percentage compared to the standard compound
T4 construct: expressed in transfected cells
T4 sequence (P19793 1-462): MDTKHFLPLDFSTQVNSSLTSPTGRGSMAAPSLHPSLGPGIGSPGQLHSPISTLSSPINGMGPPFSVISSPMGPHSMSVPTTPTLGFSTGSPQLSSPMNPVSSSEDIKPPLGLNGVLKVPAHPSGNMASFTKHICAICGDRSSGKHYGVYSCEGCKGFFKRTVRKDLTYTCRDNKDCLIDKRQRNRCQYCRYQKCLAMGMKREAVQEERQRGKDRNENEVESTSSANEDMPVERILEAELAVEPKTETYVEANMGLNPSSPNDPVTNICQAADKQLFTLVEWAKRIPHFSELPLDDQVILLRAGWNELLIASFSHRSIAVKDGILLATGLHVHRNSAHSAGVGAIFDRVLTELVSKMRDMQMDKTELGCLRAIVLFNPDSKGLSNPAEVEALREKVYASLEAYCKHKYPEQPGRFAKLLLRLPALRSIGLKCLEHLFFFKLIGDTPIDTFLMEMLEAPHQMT
Description: (§2) The results obtained in this assay are expressed in EC50 numbers, as they are also in the chimeric receptor transactivation assay.
(§3) Particularly, the transactivation data pertaining to activation of the RAR receptors were obtained in the chimeric assay, and the transactivation data pertaining to the activation of RXR receptors were obtained in the holoreceptor assay.

RXRα [2] = target: T4, RXRα; assay: ligand binding assay; conditions: read-out: RXR Bind. Ki α
Description: as §1

RXRβ [3] = target: T5, RXRβ (Homo sapiens, UniProt P28702); assay: ligand binding assay; conditions: read-out: RXR Bind. Ki β
T5 sequence (P28702 1-533): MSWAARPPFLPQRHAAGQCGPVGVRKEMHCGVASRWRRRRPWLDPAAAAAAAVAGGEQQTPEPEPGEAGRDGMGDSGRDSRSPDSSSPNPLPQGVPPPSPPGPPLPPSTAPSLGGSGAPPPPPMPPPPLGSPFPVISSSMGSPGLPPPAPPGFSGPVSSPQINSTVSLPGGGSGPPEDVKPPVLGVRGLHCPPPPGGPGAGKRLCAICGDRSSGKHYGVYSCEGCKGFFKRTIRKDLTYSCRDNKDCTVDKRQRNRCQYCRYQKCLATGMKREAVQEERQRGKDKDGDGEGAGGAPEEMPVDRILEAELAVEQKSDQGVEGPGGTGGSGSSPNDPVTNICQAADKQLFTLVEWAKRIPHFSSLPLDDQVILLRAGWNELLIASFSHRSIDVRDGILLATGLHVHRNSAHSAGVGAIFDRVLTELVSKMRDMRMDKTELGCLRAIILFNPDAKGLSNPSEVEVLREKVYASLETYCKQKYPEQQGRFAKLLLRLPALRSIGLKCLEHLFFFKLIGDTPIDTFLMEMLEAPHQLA
Description: as §1

[4] = system: female diabetic db/db mice; assay: serum glucose, triglyceride and thyroxine levels in db/db mice; assay type: in vivo; conditions: for Glucose Day 0 / Triglycerides Day 0: day 0 (pre-treatment)
Description: An assay described below tests the effect of compounds of the invention on serum glucose, tryglyceride and thyroxine levels in female 9-10 weeks old db/db mice.
Blood samples (70 μl) were taken by orbital bleeding at 11:00 AM on day 0 (pre-treatment), day 3, and day 6. On day 7, a blood sample (700 μl) was taken at 11:00 AM and the animals were sacrificed. Glucose, triglyceride and thyroxine (T4) levels were determined on a Boehringer Manheim Hatachi Clinical Chemistry Analyzer using standard protocols provided by the manufacturer and reagents that were supplied in commercially available kits (glucose and T4: Boehringer Manheim; triglycerides: Roche Diagnostics). Seven animals were treated in each group.

RXRβ [5] = target: T6, RXRβ (UniProt P28704); assay: holoreceptor transactivation assay
T6 sequence (P28704 1-520): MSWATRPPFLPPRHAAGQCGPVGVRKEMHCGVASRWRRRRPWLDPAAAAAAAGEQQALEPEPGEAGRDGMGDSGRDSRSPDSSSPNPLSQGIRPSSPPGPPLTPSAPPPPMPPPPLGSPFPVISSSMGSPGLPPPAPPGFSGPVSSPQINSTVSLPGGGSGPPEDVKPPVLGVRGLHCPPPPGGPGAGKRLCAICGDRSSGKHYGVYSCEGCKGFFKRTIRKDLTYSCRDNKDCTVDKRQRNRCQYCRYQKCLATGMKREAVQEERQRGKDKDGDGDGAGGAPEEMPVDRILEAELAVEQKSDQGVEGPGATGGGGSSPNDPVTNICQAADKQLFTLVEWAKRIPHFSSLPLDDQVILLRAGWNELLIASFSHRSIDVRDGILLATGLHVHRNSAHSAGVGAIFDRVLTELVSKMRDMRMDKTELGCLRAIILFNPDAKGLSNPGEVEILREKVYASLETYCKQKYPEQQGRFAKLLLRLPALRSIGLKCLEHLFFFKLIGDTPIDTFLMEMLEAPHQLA
Description: as §2, §3

RXRγ [6] = target: T7, RXRγ (UniProt P28705); assay: holoreceptor transactivation assay; conditions: percentage compared to the standard compound
T7 sequence (P28705 1-463): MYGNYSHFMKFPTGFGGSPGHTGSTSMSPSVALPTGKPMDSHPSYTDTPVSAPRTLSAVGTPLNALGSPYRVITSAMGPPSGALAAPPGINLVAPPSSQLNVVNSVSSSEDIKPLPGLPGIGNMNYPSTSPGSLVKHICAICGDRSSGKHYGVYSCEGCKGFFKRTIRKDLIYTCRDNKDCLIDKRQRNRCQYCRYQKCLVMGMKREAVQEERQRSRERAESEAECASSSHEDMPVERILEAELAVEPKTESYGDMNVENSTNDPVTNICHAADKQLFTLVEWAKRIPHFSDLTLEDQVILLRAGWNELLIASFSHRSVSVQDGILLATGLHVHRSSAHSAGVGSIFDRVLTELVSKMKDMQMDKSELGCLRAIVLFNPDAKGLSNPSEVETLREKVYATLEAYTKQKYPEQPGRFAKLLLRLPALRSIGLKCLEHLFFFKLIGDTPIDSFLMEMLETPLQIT
Description: as §2, §3

RXRγ [7] = target: T8, RXRγ (Homo sapiens, UniProt P48443); assay: ligand binding assay; conditions: read-out: RXR Bind. Ki γ
T8 sequence (P48443 1-463): T7 sequence (P28705 1-463) with T13A, F15Y, V31A, P34S, S228T, S230G, V258M, S450T
Description: as §1

[8] = Table 3, 50 mg/kg oral gavage daily
[9] = percentage compared to the standard compound
[10] = Table 2, 50 mg/kg oral gavage daily
[11] = Table 2, 5 mg/kg oral gavage daily
[12] = Table 3, 5 mg/kg oral gavage daily

Ki (RARα): 170 nM
Ki (RARβ): 80 nM
Ki (RARγ): 310 nM
EC50 (RXRα [1]): 1 nM
RXR Trans. efficacy α (RXRα [1]): 33%
Ki (RXRα [2]): 1 nM
Ki (RXRβ [3]): 12 nM
T4 Day 7 [4, 8]: 3.0 µg/dL
RXR Trans. efficacy β (RXRβ [5]; [9]): 29%
RXR Trans. efficacy γ (RXRγ [6]): 21%
SMILES: CCCOc1c(\C(=C/C=C/C(C)=C/C(=O)O)CC)cc(C(C)C)cc1C(C)C [Compound 8, 7-(3,5-Diisopropyl-2-propoxy-phenyl)-3-methyl-nona-2,4,6-trienoic acid]
Glucose Day 0 [4, 8]: 468 mg/dL
Triglycerides Day 0 [4, 8]: 173 mg/dL
Glucose Day 3, 3 h [4, 8]: 443 mg/dL
Triglycerides Day 3, 3 h [4, 8]: 278 mg/dL
Glucose Day 6, 3 h [4, 8]: 384 mg/dL

Ki (RARα): 310 nM
Ki (RARβ): 200 nM
Ki (RARγ): 550 nM
EC50 (RXRα [1]): 0.4 nM
RXR Trans. efficacy α (RXRα [1]): 34%
Ki (RXRα [2]): 1 nM
Ki (RXRβ [3]): 12 nM
Ki (RXRγ [7]): 21 nM
T4 Day 7 [4, 10]: 2.2 µg/dL
RXR Trans. efficacy β (RXRβ [5]; [9]): 33%
RXR Trans. efficacy γ (RXRγ [6]): 25%
SMILES: CCCOc1c(\C(C)=C/C=C/C(C)=C/C(=O)O)cc(C(C)C)cc1C(C)C [Compound 16, 7-(3,5-Diisopropyl-2-propoxy-phenyl)-3-methyl-octa-2,4,6-trienoic acid]
Glucose Day 0 [4, 10]: 365 mg/dL
Triglycerides Day 0 [4, 10]: 199 mg/dL
Glucose Day 3, 3 h [4, 10]: 283 mg/dL
Triglycerides Day 3, 3 h [4, 10]: 189 mg/dL
Glucose Day 6, 3 h [4, 10]: 309 mg/dL

RXR Trans. efficacy α (RXRα [1]): 100%
T4 Day 7 [4, 11]: 1.2 µg/dL
T4 Day 7 [4, 12]: 1.4 µg/dL
effect on serum thyroxine levels ([4]; diabetic mammals, summary in words): reducing serum thyroxine levels
RXR Trans. efficacy β (RXRβ [5]): 0.4 (100) 1%
SMILES: CC(/C=C/[C@@H]1C[C@]1(C)c1ccc2c(c1)C(C)(C)CCC2(C)C)=C\C(=O)O [Standard compound]
Glucose Day 0 [4, 11]: 378 mg/dL
Triglycerides Day 0 [4, 11]: 171 mg/dL
Glucose Day 3, 3 h [4, 11]: 308 mg/dL
Triglycerides Day 3, 3 h [4, 11]: 472 mg/dL
Glucose Day 6, 3 h [4, 11]: 333 mg/dL
Glucose Day 0 [4, 12]: 409 mg/dL
Triglycerides Day 0 [4, 12]: 193 mg/dL
Glucose Day 3, 3 h [4, 12]: 369 mg/dL
Triglycerides Day 3, 3 h [4, 12]: 50 mg/dL
Glucose Day 6, 3 h [4, 12]: 378 mg/dL

— US6759546B1, “3,5-di-iso-propyl-heptatrienoic acid derivatives having serum glucose reducing activity” (Allergan, Inc., priority 2003, dated 2004)
